This note sets out measurements from article PMC4195943, “A novel small-molecule MRCK inhibitor blocks cancer cell invasion” (Cell Communication and Signaling : CCS, 2014).

The target in assay [1] is T1, ROCK2 (Homo sapiens, UniProt O75116). Nature of the assay: MLC phosphorylation in MDA-MB-231 cells expressing doxycycline-induced ROCK2 kinase domain (quantitative western blot). Further details: The kinase domains of MRCKβ (1–473), ROCK1 (1–535) or ROCK2 (1–532) were gene synthesized; expressed in transfected cells; host or cells: MDA-MB-231 D3H2LN-Luc Tet3G cells, pTRE3G-ROCK2 (1–532). Particulars: doxycycline-induced MDA-MB-231, 60 minutes treatment; read-out: cell based EC50, MLC phosphorylation induced by ROCK2. As to the method:
(A) MDA-MB-231 breast cancer cells expressing doxycycline inducible ROCK1, ROCK2 or MRCKβ kinase domains were established as indicated. Following treatment with doxycycline for 18 hours to induce expression, cell lysates were western blotted with antibodies as indicated.
MDA-MB-231 D3H2LN-Luc cells (Caliper LifeScience) were grown in MEM/EBSS (Hyclone) supplemented with 10% fetal bovine serum (FBS) (Gibco), 1 mM Sodium Pyruvate (Sigma) 2 mM L-glutamine (Gibco), 1× MEM non-essential amino acids (Gibco) plus penicillin-streptomycin (10 Units/ml and 10 μg/ml respectively) at 37°C in 5% CO2 in a humidified incubator. MDA-MB-231 D3H2LN-Luc TetOn MRCKβ, ROCK1 and ROCK2 selective cell lines were grown in the same media with 10% FBS replaced with 10% Tet System Approved FBS (Clontech).
The kinase domains of MRCKβ (1–473), ROCK1 (1–535) or ROCK2 (1–532) were gene synthesized (Genscript) and subcloned into pTRE3G (Clontech). MDA-MB-231 D3H2LN-Luc Tet3G cells were co-transfected with pTRE3G-MRCKβ (1–473), pTRE3G-ROCK1 (1–535) or pTRE3G-ROCK2 (1–532), together with a linear Pur^r-selection marker using Xfect transfection reagent according to manufacturer’s instructions. […] Each clone was treated with or without doxycycline (1 μg/ml) for 24 hours and kinase domain expression and activity determined by western blotting. […]
(In general: Immunoblotting shows a protein as a band on a membrane.)
Target sequence in this assay (O75116 1-532): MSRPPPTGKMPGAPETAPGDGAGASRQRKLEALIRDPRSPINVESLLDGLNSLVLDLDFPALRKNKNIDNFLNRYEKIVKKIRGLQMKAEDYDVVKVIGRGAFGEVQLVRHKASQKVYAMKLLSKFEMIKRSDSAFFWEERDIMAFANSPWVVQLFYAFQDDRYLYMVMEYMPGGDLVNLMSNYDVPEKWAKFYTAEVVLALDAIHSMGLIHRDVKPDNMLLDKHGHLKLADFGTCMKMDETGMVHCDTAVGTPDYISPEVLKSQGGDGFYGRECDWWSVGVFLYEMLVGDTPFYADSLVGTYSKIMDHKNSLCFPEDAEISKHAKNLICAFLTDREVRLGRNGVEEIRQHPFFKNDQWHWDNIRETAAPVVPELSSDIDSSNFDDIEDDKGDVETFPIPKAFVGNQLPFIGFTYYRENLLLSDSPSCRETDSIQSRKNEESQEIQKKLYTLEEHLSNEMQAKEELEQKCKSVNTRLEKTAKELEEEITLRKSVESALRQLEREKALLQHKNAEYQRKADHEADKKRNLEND

Assay [2] has as its target T1, ROCK2. Kind of assay: IMAP fluorescence polarization kinase assay, ROCK2. The assay is classed as biochemical. Set-up: purchased Life Technologies. To be noted: in vitro, 1 μM ATP. As to the method:
MRCKα, MRCKβ, ROCK1 and ROCK2 assays were performed using an IMAP fluorescence polarization assay format (Molecular Devices Inc.). 8–12 nM of each kinase (Life Technologies) was incubated for 60 min at room temperature with 100 nM FAM-S6-ribosomal protein derived peptide (synthesized by Alta Biosciences, University of Birmingham UK) in the presence of 1 μM ATP and 0.5 mM MgCl2 in 20 mM Tris buffer (pH 7.4) containing 0.01% Tween-20 and 1 mM DTT (MRCKα and β); or 1 μM ATP, 10 mM MgCl2 in 20 mM Tris buffer (pH 7.5) containing 0.25 mM EGTA 0.01% Triton X-100 and 1 mM DTT (ROCK1 and ROCK2). Typically, dose response analyses were performed over concentration ranges from 0.005 - 100 μM. Reactions were stopped by adding 2 assay volumes of 0.25% (v/v) IMAP binding reagent in 1× IMAP binding buffer A (Molecular Devices). After 30 min incubation to allow binding reagent to bind phosphorylated peptide, fluorescence polarization was measured on a Tecan Saphire^2 plate reader at excitation (470 nm) and emission (530 nm) wavelengths. Inhibition was calculated using no inhibitor and no enzyme controls as 0 and 100% inhibition, respectively.
Target sequence in this assay (O75116 whole entry, the tested form may be a part): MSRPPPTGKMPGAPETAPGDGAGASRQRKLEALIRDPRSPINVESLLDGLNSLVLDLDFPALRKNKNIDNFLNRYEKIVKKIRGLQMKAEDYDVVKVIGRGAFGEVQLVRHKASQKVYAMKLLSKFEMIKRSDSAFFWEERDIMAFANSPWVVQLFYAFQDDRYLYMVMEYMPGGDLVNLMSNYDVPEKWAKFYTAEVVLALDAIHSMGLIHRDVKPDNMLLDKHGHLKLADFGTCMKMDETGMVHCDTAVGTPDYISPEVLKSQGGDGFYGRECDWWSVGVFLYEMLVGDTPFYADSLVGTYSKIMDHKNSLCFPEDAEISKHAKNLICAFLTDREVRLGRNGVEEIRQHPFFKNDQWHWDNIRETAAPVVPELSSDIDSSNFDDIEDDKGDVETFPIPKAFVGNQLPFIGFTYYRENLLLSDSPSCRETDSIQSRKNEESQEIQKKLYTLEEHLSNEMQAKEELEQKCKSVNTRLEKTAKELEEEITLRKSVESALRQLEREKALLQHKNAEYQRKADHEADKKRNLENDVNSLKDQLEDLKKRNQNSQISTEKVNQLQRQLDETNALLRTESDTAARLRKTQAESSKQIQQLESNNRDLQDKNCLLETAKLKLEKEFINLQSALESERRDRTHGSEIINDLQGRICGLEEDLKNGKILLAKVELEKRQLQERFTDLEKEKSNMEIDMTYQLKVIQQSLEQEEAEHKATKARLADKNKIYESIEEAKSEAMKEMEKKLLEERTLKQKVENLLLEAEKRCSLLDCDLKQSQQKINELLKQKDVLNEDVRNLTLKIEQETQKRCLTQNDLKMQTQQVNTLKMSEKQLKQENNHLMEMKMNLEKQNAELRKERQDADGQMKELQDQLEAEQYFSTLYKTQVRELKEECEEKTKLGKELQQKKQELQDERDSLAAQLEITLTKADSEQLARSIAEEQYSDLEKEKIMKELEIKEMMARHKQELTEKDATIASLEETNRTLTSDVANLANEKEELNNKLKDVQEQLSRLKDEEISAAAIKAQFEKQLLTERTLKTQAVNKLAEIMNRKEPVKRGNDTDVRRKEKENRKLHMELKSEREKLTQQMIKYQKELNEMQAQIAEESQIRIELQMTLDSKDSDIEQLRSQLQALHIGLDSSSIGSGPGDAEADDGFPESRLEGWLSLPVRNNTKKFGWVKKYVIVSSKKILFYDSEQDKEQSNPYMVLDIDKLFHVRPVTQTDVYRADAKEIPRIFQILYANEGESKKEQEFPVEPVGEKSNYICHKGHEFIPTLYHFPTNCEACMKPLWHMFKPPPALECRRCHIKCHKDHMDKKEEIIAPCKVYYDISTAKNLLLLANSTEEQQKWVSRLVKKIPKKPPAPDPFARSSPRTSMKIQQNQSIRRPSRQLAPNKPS
Background: Fluorescence polarisation rises when a labelled molecule tumbles more slowly, as on binding a larger partner.

The structures appear in SMILES notation. pEC50, pIC50: −log10 of the molar value.

One may read the pEC50 as the negative decadic logarithm of the EC50, by convention in mol/L. Usually pIC50 stands for −log10 of the IC50, conventionally taken in molar units. Regarding `O=C(Nc1cn[nH]c1-c1ccccn1)c1nn(C2CCNCC2)cc1Cl` [BDP5290, 4-chloro-1-(4-piperidyl)-N-[5-(2-pyridyl)-1H-pyrazol-4-yl]pyrazole-3-carboxamide], the pEC50 on ROCK2 [1] is 6.35. For the same molecule, the pIC50 at ROCK2 [2] is 6.91.
